Reference: US20100317533A1, “BIOMARKERS OF CANCER METASTASIS” (BRITISH COLUMBIA CANCER AGENCY BRANCH, priority 2009, published 2010)

Experiments:
Format in all cases: cell-based, mouse
4T1 cells [1] = assay: Measurement of extracellular pH of culture medium, 4T1 cells; settings: hypoxia 72 hours, CAI 17 400 μM
Description: (§1) The acquisition, generation and culture of the mouse breast cancer cell lines 4T1, 66cl4 and 67NR have been described previously^11. These 3 cell lines stably express a luciferase reporter^11 and were cultured routinely in DMEM supplemented with 10% FBS, non-essential amino acids and […] puromycin. Incubation in normoxia was carried out in a humidified atmosphere of 5% CO2 and 95% air at 37° C. Cells were maintained in conditions of hypoxia (1% O2 and 5% CO2 balanced with N2) at 37° C. in a humidified incubator positioned in a sealed anaerobic workstation.
Cells were plated in 60 mm dishes and allowed to recover for 24 hours. Growth medium was then replaced with a standard 3 ml volume of fresh media and cells were incubated in normoxia or hypoxia for 72 hours. Spent media was collected in 15 ml conical tubes, maintained at 37° C. and pH was measured immediately using a digital pH meter. Triplicate plates were run for each condition and results were averaged. Cell layers were kept on ice and were harvested for qRT-PCR and Western blot analysis. […]
(§2) Data are expressed as the mean change in extracellular pH±s.e.m. of triplicate samples and are representative of 3 independent experiments. […]
Data are expressed as the mean change in extracellular pH±s.e.m. and are representative of 2 independent experiments (each n=3).

66cl4 cells [2] = assay: Measurement of extracellular pH of culture medium, 66cl4 cells; settings: hypoxia 72 hours, CAI 17 600 μM
Description: as §1
Cells were plated in 60 mm dishes and allowed to recover for 24 hours. Growth medium was then replaced with a standard 3 ml volume of fresh media and cells were incubated in normoxia or hypoxia for 72 hours. Spent media was collected in 15 ml conical tubes, maintained at 37° C. and pH was measured immediately using a digital pH meter. Triplicate plates were run for each condition and results were averaged. Cell layers were kept on ice and were harvested for qRT-PCR and Western blot analysis.
CAI 17 was a generous gift from Dr. Claudiu Supuran (University of Florence, Florence, Italy). The chemical properties of this sulfonamide have been previously described^20,34. […]
as §2

4T1 cells [3] = assay: Binding of FITC-tagged CAIX inhibitor to cells (epifluorescence), 4T1 cells; settings: hypoxia 72 hours, 10 μM
Description: (§3) CAI 17 was a generous gift from Dr. Claudiu Supuran (University of Florence, Florence, Italy). The chemical properties of this sulfonamide have been previously described^20,34. The sulfonamide was dissolved in 100% DMSO, stored at −80° C. and diluted into culture medium just prior to application. Subconfluent cell monolayers were incubated with CAI 17 for 72 hours in normoxia or hypoxia, washed 3× in PBS and imaged using a Ziess Axioplan epifluorescence microscope.
(§4) FIG. 4, part d, depicts localization of the fluorescent CAIX inhibitor, CAI 17, on cells. To determine whether the acidification was CAIX-dependent, cells were treated with a highly specific CAIX inhibitor (compound 17 or “CAI 17”)^20. Cells were incubated in normoxia or hypoxia for 72 hours in the presence of CAI 17 at a concentration of 10 μM. Shown are representative images of the FITC-tagged inhibitor bound to the cells under the indicated experimental conditions. Data were similar in 3 independent experiments.

66cl4 cells [4] = assay: Binding of FITC-tagged CAIX inhibitor to cells (epifluorescence), 66cl4 cells; settings: hypoxia 72 hours, 10 μM
Description: as §3, §4

67NR cells = assay: Binding of FITC-tagged CAIX inhibitor to cells (epifluorescence), 67NR cells; settings: hypoxia 72 hours, 10 μM
Description: as §3, §4

NS(=O)(=O)c1ccc(CCNC(=S)Nc2ccc(-c3c4ccc(=O)cc-4oc4cc(O)ccc34)c(C(=O)O)c2)cc1 [CAI 17]
acidification of the extracellular medium under hypoxia (4T1 cells [1]): reversed acidification of the extracellular medium | acidification of the extracellular medium under hypoxia (66cl4 cells [2]): reversed acidification of the extracellular medium | binding of FITC-tagged inhibitor to cell surfaces (4T1 cells [3]): binds to the cell surfaces | binding of FITC-tagged inhibitor to cell surfaces (66cl4 cells [4]): binds to the cell surfaces | binding of FITC-tagged inhibitor to cell surfaces (67NR cells): not
